Source: PMC5493200 (ACS infectious diseases, 2016)

System: drug resistant clinical M. tuberculosis isolates
Type: cell-based, Mycobacterium tuberculosis
Design: unit not given beside the values
Settings: 29 clinical isolates, 18 MDR and 5 XDR

SMILES	MIC range
CN[C@@H]1[C@H](O)[C@H](NC)[C@H]2O[C@]3(O)[C@H](O[C@@H]2[C@H]1O)O[C@H](C)C[C@H]3NC(=O)Cc1ccc(O)cn1.Cl.Cl.Cl [Compound 39, 3′-Dihydro-3′-deoxy-3′(R)-(5-hydroxypyridin-2-yl)acetylamino spectinomycin trihydrochloride]	1.56–3.13
Br.Br.Br.CN[C@@H]1[C@H](O)[C@H](NC)[C@H]2O[C@]3(O)[C@H](O[C@@H]2[C@H]1O)O[C@H](C)C[C@H]3NC(=O)Cc1cc(Cl)c(F)cn1 [Compound 49, 3′-Dihydro-3′-deoxy-3′(R)-(4-chloro-5-fluoropyridin-2-yl)acetylamino spectinomycin trihydrobromide]	0.39–1.56
